Reference: paper PMC8472562, “Oral Peptide Vaccine against Hookworm Infection: Correlation of Antibody Titers with Protective Efficacy” (Vaccines, 2021)
Entries after “also recorded” stand apart in the source; their conditions may differ. Bridge positions count the residues as written; N and C are the ends. I, II: the chains in the order shown.

Tests used:
[1] = molecular target: T1, bovine trypsin (Bos taurus, UniProt P00760); assay: In vitro stability against proteolysis by bovine trypsin; type: in vitro ADME; settings: bovine trypsin in PBS, 37 °C
T1 construct: purchased Sigma-Aldrich
T1 sequence (P00760 24-246): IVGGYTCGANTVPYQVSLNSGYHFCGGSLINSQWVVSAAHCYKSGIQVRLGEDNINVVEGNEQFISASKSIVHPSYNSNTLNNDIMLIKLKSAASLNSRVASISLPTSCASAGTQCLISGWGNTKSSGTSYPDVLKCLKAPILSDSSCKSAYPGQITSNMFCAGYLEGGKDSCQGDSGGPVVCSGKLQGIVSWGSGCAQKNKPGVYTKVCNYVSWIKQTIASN
Protocol: (§1) Enzyme 1000 U solution was prepared from bovine trypsin (10,000 U/mg, Sigma-Aldrich, Castle Hill, NSW, Australia) with 1 mM CaCl2 in 1 mL PBS, as reported previously. After preparation, 100 µL of enzyme solution was added to 400 µL of peptide solution (1.25 mg/mL) in PBS and incubated at 37 °C with shaking. To inhibit enzyme activity, 40 µL of TFA and acetonitrile mixture (1:2) was added to 60 µL aliquots of the mixture at each interval. The solution was analyzed by analytical HPLC with a calibration curve employing the compound’s peak at its characteristic retention time to determine intact compound concentration.

[2] = Particle size distribution by dynamic light scattering and TEM; type: physicochemical; settings: 0.2 mg/mL in PBS, 25 °C, angle 173°
Protocol: Particle size distribution was evaluated by preparing a 0.2 mg/mL solution of each pure compound in PBS and measured using dynamic light scattering (DLS; Zetasizer Nano ZP) at 25 °C and an angle of 173°.
Compounds were evaluated by transmission electron microscopy using a JEM-1010 microscope (JEOL LTD, Tokyo, Japan) at 100 kV. The images were analyzed using AnalySIS® software (Megaview III, Munster, Germany).

[3] = tested on: T2, bovine trypsin; assay: In vitro stability against proteolysis by bovine trypsin; type: in vitro ADME; settings: bovine trypsin 1000 U solution, 1 mM CaCl2 in PBS, 37 °C with shaking, analytical HPLC
T2 construct: purchased Sigma-Aldrich
Protocol: as §1

[4] = tested on: p3 epitope; type: in vivo, BALB/c mice; settings: oral gavage 4 × 100 µg, two-week intervals, n = 8/group; ELISA; compared to PBS group or between groups
[5] = Secondary structure by ATR-FTIR; type: physicochemical; settings: 2 mg/mL in PBS, 25 °C, triplicate spectra, second derivative
Protocol: The compounds’ secondary structures were evaluated according to the methodology of Yang et al.. Solutions of each compound in PBS (2 mg/mL) were prepared and placed on the diamond-attenuated total reflectance accessory of the ATR-FTIR, and absorbance spectra were collected from 500 and 4000 cm^−1, in triplicate, at 25 °C and 4 cm^−1 resolution. The first and second derivative of the absorbance spectra were generated and analyzed using Originpro 2020 software. The second derivative secondary structure component-peak assignment was also detected and quantified using Originpro 2020 software.

[6] = tested on: mutant APR-1M74; assay: Serum anti-APR-1 IgG ELISA after oral immunization; type: in vivo, BALB/c mice; settings: oral gavage 4 × 100 µg, two-week intervals, n = 8/group
[7] = tested on: Nippostrongylus brasiliensis; type: in vivo, BALB/c mice; settings: oral 4 × 100 µg; 750 L3 larvae s.c.; 7 days post-infection; one-way ANOVA and Mann Whitney U-test against negative control
[8] = tested on: p3 epitope; type: in vivo, BALB/c mice; settings: oral gavage 4 × 100 µg; ELISA

Ac-TSLIAGPKAQVEAIQKYIGAELKKLIPNASLIENCTKAELSKKKK-NH2 [p3-P25]
time to almost complete degradation by trypsin ([1]; analytical HPLC): less than 30 min

I: Ac-TSLIAGPKAQVEAIQKYIGAELKKLIPNASLIENCTKAELSKKKK-NH2 / II: Ac-LLLLLLLLLL (amide I:23-II:C) [BL10]
stability against trypsin degradation, comparison in words ([1]; one-way ANOVA with Tukey's test): significantly slower than p3-P25

Ac-LLLLLLLLLLTSLIAGPKAQVEAIQKYIGAELKKLIPNASLIENCTKAELSKKKK-NH2 (N-terminus and C-terminus assumed) [LL10]
polydispersity index (PDI) ([2]; DLS): 0.36 ± 0.1
nanoparticle size ([2]; self-assembled, electron microscopy and DLS, LCP, BL10, LL10 also formed aggregates): 22 nm
metabolised at 0.5 h, 1 mg/mL ([3]; 100 µL enzyme + 400 µL peptide 1.25 mg/mL, 30 min, read-out: degradation after 30 min of incubation with trypsin): 25%
remaining at 1 h, 1 mg/mL ([3]; peptide 1.25 mg/mL, 60 min, read-out: conjugate remained intact after 60 min): 15%
serum p3-IgG titers [4]: highest; also recorded: significantly higher
β-sheet contribution [5]: 6%
serum anti-APR-1 IgG titers [6]: highest
parasite and egg numbers after challenge infection, in words [7]: highest significant reduction in worm burden; also recorded: significantly reduced
mucosal antibody responses (saliva and fecal extracts, IgA and IgG) [8]: detectable
